Values quoted from earlier work, collected in patent US20050158403A1, “Preparation of chinese herbal composite recipe used in horticulture” (priority 2004, published 2005).

What was measured:
Shigella = conditions: 1% matrine; in vitro
E. Coli = conditions: 1% matrine; in vitro
Proteus = conditions: 1% matrine; in vitro
B-streptococcus = conditions: 1% matrine; in vitro
Staphylococcus aureaus = conditions: 1% matrine; in vitro

CC[C@@H]1[C@H]2CCCCN3[C@H]2[C@H](C[C@H]3[C@@H]2C[C@H](C)C(=O)O2)[C@@H]2[C@H]1OC(=O)[C@H]2C [tuberostemonine]
effect on Ascarid (Ascarid): tuberostemonine can paralyze

discorea saponin
effect to bacteria (bacteria): but no effect to bacteria.

O=C1CCC[C@@H]2[C@H]3CCCN4CCC[C@@H](CN12)[C@@H]34 [matrine]
bacteria inhibition effects (Shigella): bacteria inhibition effects | bacteria inhibition effects (E. Coli): bacteria inhibition effects | bacteria inhibition effects (Proteus): bacteria inhibition effects | bacteria inhibition effects (B-streptococcus): bacteria inhibition effects | bacteria inhibition effects (Staphylococcus aureaus): bacteria inhibition effects
